Measurements from patent US8980879B2 (AbbVie Inc., priority 2013, dated 2015).

Assays:
BRD4 (BDI_K57-E168) = target: T1, BRD4 (BDI_K57-E168) (Homo sapiens, UniProt O60885); test: TR-FRET bromodomain binding assay, BRD4 first bromodomain; details: His-tagged BD1, 100 nM Alexa647 probe; assay protocol D or F as given per row in c1; Ki calculated from IC50
T1 construct: BD1: amino acids K57-E168; made in house
Procedure: (§1) A time-resolved fluorescence resonance energy transfer (TR-FRET) assay was used to determine the affinities of compounds of the Examples listed in Table 1 for each bromodomain of BRD4. His-tagged first (BD1: amino acids K57-E168) and second (BD2: amino acids E352-E168) bromodomains of BRD4 were expressed and purified. An Alexa647-labeled BET-inhibitor was used as the fluorescent probe in the assay.
(§2) Compound dilution series were prepared in DMSO via an approximately 3-fold serial dilution from one of the following:
(§3) Assay method D: 500 μM-8.5 nM
(§4) Assay method E: 0.47 mM to 7.8 nM
(§5) Assay method F: 250 μM-4.2 nM
(§6) Assay method G: 0.047 mM to 0.78 nM
(§7) or 5-fold serial dilution from one of the following:
(§8) Assay method A: 2.5 mM-800 nM
(§9) Assay method B: 2.5 mM-797 nM
(§10) For Assay methods A, C, D, and F: Compounds were then diluted 6:100 in assay buffer (20 mM Sodium Phosphate, pH 6.0, 50 mM NaCl, 1 mM Ethylenediaminetetraacetic acid, 0.01% Triton X-100, 1 mM DL-Dithiothreitol) to yield 3× working solutions. Six microliters (μL) of the working solution was then transferred to white, low-volume assay plates (Costar #3673). A 1.5× assay mixture containing His-tagged bromodomain, Europium-conjugated anti-His antibody (Invitrogen PV5596) and the Alexa-647-conjugated probe molecule was also prepared. Twelve μL of this solution were added to the assay plate to reach a final volume of 18 μL.
(§11) For Assay methods B, E, and G: Compound dilutions were added directly into white, low-volume assay plates (Perkin Elmer Proxiplate 384 Plus#6008280) using a Labcyte Echo in conjunction with Labcyte Access and Thermo Multidrop CombinL robotics. Compounds were then suspended in eight microliters (μL) of assay buffer (20 mM Sodium Phosphate, pH 6.0, 50 mM NaCl, 1 mM Ethylenediaminetetraacetic acid disodium salt dihydrate, 0.01% Triton X-100, 1 mM DL-Dithiothreitol) containing His-tagged bromodomain, Europium-conjugated anti-His antibody (Invitrogen PV5596) and Alexa-647-conjugated probe.
(§12) The final concentration of 1× assay mixture for assay methods A, B, C, D, E, F, and G contains 2% DMSO, 8 nM His-tagged bromodomain, 1 nM Europium-conjugated anti-His-tag antibody and 100 nM or 30 nM probe (for BDI or BDII, respectively) and compound concentration in the range of: 50 μM-16 nM for method A, 49.02 μM-15.63 nM for method B, 25 μM-423 pM for method C, 10 μM-169 pM for method D, 9.19 μM 150 pM for method E, 5 μM-85 pM for method F, and 0.92 μM-15 pM for method G.
(§13) After a one-hour equilibration at room temperature, TR-FRET ratios were determined using an Envision multilabel plate reader (Ex 340, Em 495/520).
(§14) TR-FRET data were normalized to the means of 24 no-compound controls (“high”) and 8 controls containing 1 μM un-labeled probe (“low”). Percent inhibition was plotted as a function of compound concentration and the data were fit with the 4 parameter logistic equation to obtain IC50s Inhibition constants (Ki) were calculated from the IC50s, probe Kd and probe concentration. Typical Z′ values were between 0.65 and 0.75. The minimum significant ratio was determined to evaluate assay reproducibility (Eastwood et al., (2006) J Biomol Screen, 11: 253-261). The MSR was determined to be 2.03 for BDI and 1.93 for BDII, and a moving MSR (last six run MSR overtime) for both BDI and BDII was typically <3.

BRD4 (BDII_E352-M457) = target: T2, BRD4 (BDII_E352-M457) (Homo sapiens, UniProt O60885); test: TR-FRET bromodomain binding assay, BRD4 second bromodomain
T2 construct: protocol; made in house
Procedure: as §1, §2, §3, §4, §5, §6, §7, §8, §9, §10, §11, §12, §13, §14

[1] = tested on: breast cancer cell line MX-1; test: MX-1 cell line proliferation assay; format: cell-based; details: Homo sapiens, MX1; MX-1 cells, 3-day (72 h) proliferation, Cell Titer Glo; read-out: Cellular proliferation: EC50
Procedure: MX-1 Cell Line Proliferation Assay
The impact of compounds of the Examples on cancer cell proliferation was determined using the breast cancer cell line MX-1 (ATCC) in a 3-day proliferation assay and the data are reported in Table 1. MX-1 cells were maintained in RPMI 1640 medium (Sigma) supplemented with 10% FBS at 37 C.° and an atmosphere of 5% CO2. For compound testing, MX-1 cells were plated in 96-well black bottom plates at a density of 5000 cells/well in 90 μL of culture media and incubated at 37° overnight to allow cell adhesion and spreading. Compound dilution series were prepared in DMSO via a 3-fold serial dilution from 3 mM to 0.1 μM. The DMSO dilution series were then diluted 1:100 in phosphate buffered saline, and 10 μL of the resulted solution were added to the appropriate wells of the MX-1 cell plate. The final compound concentrations in the wells were 3, 1, 0.3, 0.1, 0.03, 0.01, 0.003, 0.001, 0.0003 and 0.0001 μM.
Luminescence readings from the Cell Titer Glo assay were normalized to the DMSO treated cells and analyzed using the GraphPad Prism software with sigmoidal curve fitting to obtain EC50s. The minimum significant ratio (MSR) was determined to evaluate assay reproducibility (Eastwood et al., (2006) J Biomol Screen, 11: 253-261). The overall MSR was determined to be 2.1 and a moving MSR (last six run MSR overtime) has been <2.

| Structure (SMILES) | Ki (BRD4 (BDI_K57-E168)) [nM] | Ki (BRD4 (BDII_E352-M457)) [nM] | EC50 [1] [nM] |
| --- | --- | --- | --- |
| Cn1cc2c3c(c[nH]c(=O)c31)C(CC1CCOCC1)N(c1ccc(F)cc1)c1ccc(CS(C)(=O)=O)cc1-2 (stereo not drawn) [Example 10] | 8.23 | 57.4 | 81.6 |
| COc1ccc(F)cc1CC(=O)Nc1ccc2c(c1)-c1cn(C)c3c(=O)[nH]cc(c13)CN2c1ccc(F)cc1 [Example 65] | 3.92 | 44.9 | 55.5 |
| Cn1cc2c3c(c[nH]c(=O)c31)CNc1ccc(S(C)(=O)=O)cc1-2 [Example 1] | 1350 | 2820 | > 3000 |
| Cn1cc2c3c(c[nH]c(=O)c31)CN(c1ccc(F)cc1)c1ccc(NC(=O)Cc3cc(F)ccc3Cl)cc1-2 [Example 30] | 3.53 | 21.8 | 51.2 |
| CCS(=O)(=O)Nc1ccc2c(c1)-c1cn(C)c3c(=O)[nH]cc(c13)CN2c1ccc(F)cc1 [Example 12] | 2.18 | 4.3 | 5.63 |
| Cn1cc2c3c(c[nH]c(=O)c31)CN(c1ccc(F)cc1)c1ccc(NC(=O)Cc3cc(F)ccc3[N+](=O)[O-])cc1-2 [Example 66] | 2.14 | 30.1 | 44.6 |
| Cn1cc2c3c(c[nH]c(=O)c31)CN(c1ccc(F)cc1)c1ncc(NC(=O)Cc3cc(F)ccc3Cl)cc1-2 [Example 17] | 1.43 | 2.48 | 19.9 |
| CCS(=O)(=O)Nc1ccc2c(c1)-c1cn(C)c3c(=O)[nH]cc(c13)CN2c1ccccn1 [Example 82] | 0.83 | 1.47 | 4.93 |
| COC(=O)CCC1c2c[nH]c(=O)c3c2c(cn3C)-c2cc(CS(C)(=O)=O)ccc2N1c1ccc(F)cc1 (stereo not drawn) [Example 9] | 6.29 | 18.2 | 805 |
| Cn1cc2c3c(c[nH]c(=O)c31)CN(c1ccc(F)cc1)c1ccc(NC(=O)Cc3cc(F)ccc3F)cc1-2 [Example 52] | 2.76 | 55.9 | 55.9 |
| Cn1cc2c3c(c[nH]c(=O)c31)CN(c1ccc(F)cc1)c1ccc(N)cc1-2 [Example 23] | 1.38 | 7.54 | 4.79 |
| CCOC(=O)C1c2c[nH]c(=O)c3c2c(cn3C)-c2cc(CS(C)(=O)=O)ccc2N1c1ccc(F)cc1 (stereo not drawn) [Example 15] | 9.14 | 26.9 | 36.3 |
| COCCC1c2c[nH]c(=O)c3c2c(cn3C)-c2cc(CS(C)(=O)=O)ccc2N1c1ccc(F)cc1 (stereo not drawn) [Example 8] | 5.81 | 25.2 | 46.6 |
| Cn1cc2c3c(c[nH]c(=O)c31)CN(c1ccc(F)cc1)c1ccc(NC(=O)Cc3ccc(Cl)cc3F)cc1-2 [Example 29] | 3.03 | 22.4 | – |
| Cn1cc2c3c(c[nH]c(=O)c31)CN(c1ccc(F)cc1)c1ccc(NCCCn3cccn3)cc1-2 [Example 39] | 1.94 | 12.3 | 23.2 |
| Cn1cc2c3c(c[nH]c(=O)c31)CN(c1ccc(F)cc1)c1ccc(NC(=O)Cn3ccc(-c4ccccc4F)n3)cc1-2 [Example 31] | 11.5 | 79.5 | – |
| Cn1cc2c3c(c[nH]c(=O)c31)CN(c1ccc(F)cc1)c1ccc(C(=O)NCc3cc(F)ccc3Cl)cc1-2 [Example 60] | 3.2 | 46.1 | 75.5 |
| CC(=O)Nc1ccc2c(c1)-c1cn(C)c3c(=O)[nH]cc(c13)CN2C1CCN(C(C)=O)CC1 [Example 77] | 4.6 | 112 | > 1000 |

| Structure (SMILES) | Ki (BRD4 (BDI_K57-E168)) [nM] | Ki (BRD4 (BDII_E352-M457)) [nM] | EC50 [1] [nM] |
| --- | --- | --- | --- |
| Cn1cc2c3c(c[nH]c(=O)c31)CN(c1ccc(F)cc1)c1ccc(NC(=O)Cc3cc(Cl)ccc3Cl)cc1-2 [Example 50] | 5.94 | 33.1 | 63.7 |
| Cn1cc(CC(=O)Nc2cnc3c(c2)-c2cn(C)c4c(=O)[nH]cc(c24)CN3c2ccc(F)cc2)cn1 [Example 22] | 1.29 | 3.03 | 16.5 |
| Cn1cc2c3c(c[nH]c(=O)c31)CN(c1ccc(F)cc1)c1ncc(NC(=O)Cc3ccc4c(c3)CCCO4)cc1-2 [Example 21] | 1.05 | 2.69 | 16.6 |
| Cn1nccc1CNc1ccc2c(c1)-c1cn(C)c3c(=O)[nH]cc(c13)CN2c1ccc(F)cc1 [Example 38] | 1.52 | 9.3 | 9 |
| Cn1cc2c3c(c[nH]c(=O)c31)CN(c1ccc(F)cc1F)c1ncc(N)cc1-2 [Example 67] | 21.2 | 7 | – |
| CC(=O)N1CCC(N2Cc3c[nH]c(=O)c4c3c(cn4C)-c3cc(N)ccc32)CC1 [Example 73] | 7.08 | 41.8 | – |
| COc1ccc(F)cc1CNC(=O)c1ccc2c(c1)-c1cn(C)c3c(=O)[nH]cc(c13)CN2c1ccc(F)cc1 [Example 56] | 1.74 | 57.4 | – |
| Cn1cc2c3c(c[nH]c(=O)c31)CN(c1ccc(F)cc1)c1ccc(NC(=O)Cc3ccc4c(c3)CCCO4)cc1-2 [Example 46] | 3.29 | 19.7 | – |
| COc1cccc(NC(=O)Nc2ccc3c(c2)-c2cn(C)c4c(=O)[nH]cc(c24)CN3c2ccc(F)cc2)c1 [Example 45] | 7.12 | 130 | – |
| CC(NC(=O)c1ccc2c(c1)-c1cn(C)c3c(=O)[nH]cc(c13)CN2c1ccc(F)cc1)c1ccc(F)cc1 (stereo not drawn) [Example 59] | 2.89 | 71.5 | – |
| CC(NC(=O)c1ccc2c(c1)-c1cn(C)c3c(=O)[nH]cc(c13)CN2c1ccc(F)cc1)c1ccc(Cl)cc1Cl (stereo not drawn) [Example 61] | 5.17 | 147 | – |
| Cn1cc2c3c(c[nH]c(=O)c31)CN(c1ccc(F)cc1)c1ccc(NC(=O)Cc3cc(Cl)ccc3Oc3ccccc3)cc1-2 [Example 55] | 9.31 | 240 | – |
| Cn1cc2c3c(c[nH]c(=O)c31)CN(c1ccc(F)cc1)c1ccc(NC(=O)Cc3ccccc3)cc1-2 [Example 54] | 2.07 | 17.9 | – |
| Cc1ccc(C)c(CC(=O)Nc2ccc3c(c2)-c2cn(C)c4c(=O)[nH]cc(c24)CN3c2ccc(F)cc2)c1 [Example 53] | 2.61 | 50.1 | – |
| Cn1cc2c3c(c[nH]c(=O)c31)CN(c1ccc(F)cc1)c1ccc(NC(=O)Cc3cc(F)ccc3C(F)(F)F)cc1-2 [Example 51] | 5.12 | 84.8 | – |
| Cn1cc2c3c(c[nH]c(=O)c31)CN(c1ccc(F)cc1)c1ccc(C(=O)NCc3cc(F)ccc3F)cc1-2 [Example 64] | 1.73 | 46.9 | – |
| Cn1cc2c3c(c[nH]c(=O)c31)C(c1ccccc1)N(c1ccc(F)cc1)c1ccc(Cl)cc1-2 (stereo not drawn) [Example 24] | 178 | > 408 | – |
